“And” between values parts separate entries of the source, which are not always exact repeats. Equal values may be shown once.
Tests used:
[1] = Jacobsen J P R 2016; cited from earlier work
Fmr1 KO mice [2] = test: Open field test (hyperactivity); type: in vivo
Procedure: (§1) Fmr1 KO mice backcrossed to the FVB strain and WT littermates were used during experiments. TransnetXY Automated Genotyping (www.transnetyx.com/). TRANSNETYX, INC., 8110 Cordova Rd. Suite 119, Cordova, TN 38016, USA was used for genotyping. The animals were pretreated for 14 days. The active ingredients of Sumatriptan and Ergoloid were in a water carrier, whereas oxitriptan was in a methanol carrier.
(§2) The mice were housed in plastic cages (35×30×12 cm), 5 in each. The room temperature (21±2° C.),relative humidity (55±5%), a 12-h light-dark cycle (lights on 7 a.m.-7 p.m.) and air exchange (16 times per h) were automatically controlled. The animals had free access to commercial food pellets and water. Testing was conducted during the light phase. Ten mice per treatment group were used for the AGS experiments. Experiments were conducted in line with the requirements of the UK Animals (Scientific Procedures) Act, 1986.
All experiments were conducted with the experimenter blind to genotype and drug treatment. Separate investigators prepared and coded dosing solutions, allocated the mice to the study treatment groups, dosed the animals, and collected the Audiogenic Seizure data. […]
For hyperactivity, the open field test (OFT) is a common measure of exploratory behavior and general activity in both mice and rats, where both the quality and quantity of the activity can be measured. […]

Fmr1 KO mice [3] = test: Anxiety: hyponeophagia test; type: in vivo
Procedure: as §1, §2
(§3) All experiments were conducted with the experimenter blind to genotype and drug treatment. Separate investigators prepared and coded dosing solutions, allocated the mice to the study treatment groups, dosed the animals, and collected the Audiogenic Seizure data.
Behavior testing was conducted at 2 weeks. […]
For anxiety a hyponeophagia test was conducted. […] The amounts ingested then gradually increase until the animal has determined whether the substance is safe and nutritious. […]

Fmr1 KO mice [4] = test: Memory and learning: Novel Object Recognition (NOR); type: in vivo; design: unit not given here; details: for NOR: Mean Diff., F_KO-V vs. F_ treated KO (Dunnett) / NOR: Mean 2 (mean of F_ treated KO group): F_ values; for NOR: Mean Diff., F_KO-V vs. F_ treated KO (Dunnett) / NOR: Mean Diff., F_KO-V vs. N_ treated KO (Dunnett): against F_KO-V; for NOR: Mean Diff., F_KO-V vs. F_ treated KO (Dunnett): Sumatriptan 20, Oxitriptan 40, Ergoloid 4, Ergoloid 2 + Oxitriptan 40 mg/kg; for Novel Object Recognition, F_KO / Novel Object Recognition, N_KO: individual animal values
Procedure: as §1, §2, §3
(§4) Behavior testing was conducted at 2 weeks. The behavioral tests were as follows: 1. Hyperactivity: Open field; 2. Stereotypy: Self-grooming; 3. Sociability: Three chamber partition test; 4. Memory and Learning: Novel Object Recognition; 5. Anxiety: hyponeophagia; and 6. Test of daily living: marble burying
For memory and learning, a novel object recognition (NOR) task was used to evaluate the rodents' ability to recognize a novel object in the environment. […] The task procedure consists of three phases: habituation, familiarization, and test phase (Antunes 2012).
(§5) The treatment of the mice with OX (Oxitriptan), SU (Sumatriptan), ER (Ergoloid mesylates, also referred to as ergoloid herein) were according to the matrix shown below in Table 1. […]

Fmr1 KO mice [5] = test: Sociability: three chamber partition test; type: in vivo; design: unit not given here; details: for Sociability: Mean Diff., F_KO-V vs. F_ treated KO (Dunnett) / Sociability: Mean Diff., F_KO-V vs. N_ treated KO (Dunnett): against F_KO-V; for Sociability: Mean Diff., F_KO-V vs. F_ treated KO (Dunnett): Sumatriptan 20, Oxitriptan 40, Ergoloid 4, Ergoloid 2 + Oxitriptan 40 mg/kg; for Sociability, F_KO / Sociability, N_KO: individual animal values
Procedure: as §1, §2, §3, §4
For sociability a three chamber partition test was utilized. The three-chamber paradigm test known as Crawley's sociability and preference for social novelty protocol has previously been successfully employed to study social affiliation and social memory in several inbred and mutant mouse lines. The main principle of the test was based on the free choice by a subject mouse to spend time in any of three box's compartments during two experimental sessions, including indirect contact with one or two mice with which it was unfamiliar (Kaidanovich-Beilin 2011).
as §5

Fmr1 KO mice [6] = test: Test of daily living (marble burying / nesting); type: in vivo; design: scale not given here; details: for Tests of daily living: individual animal values
Procedure: as §1, §2, §3, §4
For test of daily living, nesting was assessed as nest building is an innate behavior in rodents, even when raised in laboratory settings. Synthetic and/or natural materials (such as twine, tissue, cotton, paper, and hay) are provided as a gauge of their overall well-being and as an ancillary assessment to predict the possible decline in cognition. Typically, changes in nesting behaviors, such as failure to create a nest, indicate a change in health or welfare. In addition, nesting behavior is sensitive to many environmental and physiological challenges, as well as many genetic mutations underlying pathological disease states (Gaskill 2013).
(§6) The treatment of the mice with OX (Oxitriptan), SU (Sumatriptan), ER (Ergoloid mesylates, also referred to as ergoloid herein) were according to the matrix shown below in Table 1.
(§7) The experimental procedures described above for Example 1 were used in the following tests, as well as the addition of two further behaviour tests as described below. An SSRI (selective serotonin re-uptake inhibitor) was co-dosed with the ergoloid mesylates and oxitriptan to assess the effect of the ergoloid mesylates and oxitriptan treatment on a subject already receiving SSRI treatment.

FMR1 mice = test: Behavioral experiments overall (FXS phenotypes); type: in vivo
Procedure: as §1, §4, §6
as §7, with “treatment. […]” for “treatment.”

Fmr1 KO mice [7] = test: Stereotypy: self-grooming; type: in vivo; details: for Stereotypy: Mean 2 (mean of treated KO group): Table 8, KO-V mean 45.40, WT-V 31.60, doses as E19
Procedure: as §1, §2, §3, §4
For stereotypy, self-grooming was assessed. Self-grooming in animals is an innate behaviour that is involved in hygiene maintenance and other physiologically important processes, including thermoregulation, social communication and de-arousal. It is one of the most frequently observed behaviours in awake rodents and has a patterned, sequential organization with characteristic cephalocaudal progression (Kalueff 2016).
as §5

[8] = Table 11, F_KO-V mean 6.600, doses as E28
[9] = Table 12, N_ values, F_KO-V mean 81.60, doses as E34
[10] = Table 4, WT-V mean 4.800, KO-V 1.200, doses as E7
[11] = Table 10, KO-V mean 1.200, doses as E25
[12] = against WT-V, Sumatriptan 20, Oxitriptan 40, Ergoloid 4, Ergoloid 2 + Sumatriptan 10, Ergoloid 2 + Oxitriptan 40 mg/kg
[13] = N_ values, against N_WT-V, Sumatriptan 20, Oxitriptan 40, Ergoloid 4, Ergoloid 2 + Sumatriptan 10, Ergoloid 2 + Oxitriptan 40 mg/kg
[14] = against KO-V, Sumatriptan 20, Oxitriptan 40, Ergoloid 4, Ergoloid 2 + Oxitriptan 40 mg/kg

N[C@@H](Cc1c[nH]c2ccc(O)cc12)C(=O)O [Oxitriptan, 2-amino-3-(5-hydroxy-1H-indol-3-yl)propanoic acid]
half life [1]: 2 h
Open Field: Mean Diff., WT-V vs. treated KO (Dunnett) (Fmr1 KO mice [2]; against WT-V, 14 days QD, Sumatriptan 20, 5-HTP 80, EM 4, Ergoloid 2 + Sumatriptan 10, Ergoloid 2 + Oxitriptan 40 mg/kg): −512.4
Hyponeophagia (Fmr1 KO mice [3]; KO-Oxitriptan (40 mg/kg), individual animal values): 150 and 140 (2×)
NOR: Mean Diff., F_KO-V vs. F_ treated KO (Dunnett) (Fmr1 KO mice [4]): −0.03636
Novel Object Recognition, F_KO (Fmr1 KO mice [4]; F_KO-Oxitriptan (40 mg/kg)): 6 (4×) and 5 (3×) and 9 (2×) and 8 (2×)
NOR: Mean Diff., F_KO-V vs. N_ treated KO (Dunnett) (Fmr1 KO mice [4]; N_ values, doses as E28): −4.218
Novel Object Recognition, N_KO (Fmr1 KO mice [4]; N_KO-Oxitriptan (40 mg/kg)): 10 (4×) and 12 and 14 and 8 (2×) and 15 and 13 and 9
NOR: Mean 2 (mean of F_ treated KO group) (Fmr1 KO mice [4]; [8]): 6.636
Sociability: Mean Diff., F_KO-V vs. F_ treated KO (Dunnett) (Fmr1 KO mice [5]; F_ values): 29.51
Sociability, F_KO (Fmr1 KO mice [5]; F_KO-Oxitriptan (40 mg/kg)): 51 (2×) and 54 and 52 (2×) and 50 (2×) and 53 (2×) and 55
Sociability: Mean Diff., F_KO-V vs. N_ treated KO (Dunnett) (Fmr1 KO mice [5]; N_ values, doses as E34): −17.20
Sociability, N_KO (Fmr1 KO mice [5]; N_KO-Oxitriptan (40 mg/kg)): 98 (2×) and 97 (2×) and 100 (2×) and 99 (2×) and 96
Sociability: Mean 2 (mean of N_ treated KO group) (Fmr1 KO mice [5]; [9]): 98.80
Tests of daily living (Fmr1 KO mice [6]; KO-Oxitriptan (40 mg/kg)): 5 (9×) and 4
Test of daily living: Mean 2 (mean of treated KO group) (Fmr1 KO mice [6]; [10]): 4.900
Test of daily living: Mean 2 (mean of treated KO group) (Fmr1 KO mice [6]; [11]): 4.900
Effect on FXS phenotypes in the behavioral experiments (Example 1) (FMR1 mice): ameliorates the FXS phenotypes
Stereotypy: Mean 2 (mean of treated KO group) (Fmr1 KO mice [7]): 38.30

CNS(=O)(=O)Cc1ccc2[nH]cc(CCN(C)C)c2c1 [Sumatriptan]
Open Field: Mean Diff., KO-V vs. treated KO (Dunnett) (Fmr1 KO mice [2]; against KO-V, Sumatriptan 20, Oxitriptan 80, Ergoloid 4, Ergoloid 2 + Oxitriptan 40 mg/kg): 846.6
Hyponeophagia: Mean Diff., WT-V vs. treated KO (Dunnett) (Fmr1 KO mice [3]; [12]): −9.200
NOR: Mean Diff., F_KO-V vs. F_ treated KO (Dunnett) (Fmr1 KO mice [4]): −0.2000
Novel Object Recognition, F_KO (Fmr1 KO mice [4]; F_KO-Sumatriptan (20 mg/kg)): 9 (2×) and 5 (2×) and 8 (2×) and 7 (2×) and 4 and 6
NOR: Mean Diff., F_KO-V vs. N_ treated KO (Dunnett) (Fmr1 KO mice [4]; N_ values, doses as E28): −0.7000
NOR: Mean Diff., N_WT-V vs. N_ treated KO (Dunnett) (Fmr1 KO mice [4]; [13]): 6.600
Novel Object Recognition, N_KO (Fmr1 KO mice [4]; N_KO-Sumatriptan (20 mg/kg)): 6 (3×) and 8 (2×) and 9 (3×) and 5 and 7
NOR: Mean 2 (mean of N_ treated KO group) (Fmr1 KO mice [4]; Table 5, N_WT-V mean 13.90, N_KO-V 6.700, doses as E10): 7.300
NOR: Mean 2 (mean of F_ treated KO group) (Fmr1 KO mice [4]; [8]): 6.800
NOR: Mean 2 (mean of N_ treated KO group) (Fmr1 KO mice [4]; Table 11, N_ values, F_KO-V mean 6.600, doses as E28): 7.300
Sociability: Mean Diff., F_KO-V vs. F_ treated KO (Dunnett) (Fmr1 KO mice [5]; F_ values): 19.40
Sociability, F_KO (Fmr1 KO mice [5]; F_KO-Sumatriptan (20 mg/kg)): 61 (2×) and 64 and 65 (2×) and 60 (3×) and 63 (2×)
Sociability: Mean Diff., F_KO-V vs. N_ treated KO (Dunnett) (Fmr1 KO mice [5]; N_ values, doses as E34): −16.60
Sociability: Mean Diff., N_WT-V vs. N_ treated KO (Dunnett) (Fmr1 KO mice [5]; [13]): 0.9000
Sociability, N_KO (Fmr1 KO mice [5]; N_KO-Sumatriptan (20 mg/kg)): 99 and 97 (2×) and 103 and 98 and 90 and 102 and 100 and 95 and 101
Sociability: Mean 2 (mean of N_ treated KO group) (Fmr1 KO mice [5]; Table 6, N_WT-V mean 99.10, N_KO-V 83.90, doses as E13): 98.20
Sociability: Mean 2 (mean of F_ treated KO group) (Fmr1 KO mice [5]; Table 12, F_ values, F_KO-V mean 81.60, doses as E34): 62.20
Sociability: Mean 2 (mean of N_ treated KO group) (Fmr1 KO mice [5]; [9]): 98.20
Tests of daily living (Fmr1 KO mice [6]; KO-Sumatriptan (20 mg/kg)): 5 (7×) and 4 (3×)
Test of daily living: Mean 2 (mean of treated KO group) (Fmr1 KO mice [6]; [10]): 4.700
Test of daily living: Mean 2 (mean of treated KO group) (Fmr1 KO mice [6]; [11]): 4.700
Test of daily living: Mean Diff., KO-V vs. treated KO (Dunnett) (Fmr1 KO mice [6]; [14]): −3.500
Test of daily living: Mean Diff., WT-V vs. treated KO (Dunnett) (Fmr1 KO mice [6]; [12]): 0.1000
Stereotypy: Mean 2 (mean of treated KO group) (Fmr1 KO mice [7]): 30.90
Stereotypy: Mean Diff., KO-V vs. treated KO (Dunnett) (Fmr1 KO mice [7]; [14]): 14.50

— patent publication US20260232633A1, “Compositions and Uses Thereof” (Purposeful IKE, priority 2020, published 2026)
